Source: patent publication US20160045482A1, “UREIDO-PYRAZOLE DERIVATIVES” (Respivert Limited, priority 2010, published 2016)
“Also recorded” adds a separate entry of the source. Read-outs that look alike come from different tables or passages of the source.

Legend:
p38MAPKα = biological target: T1, p38MAPKα (Homo sapiens, UniProt Q16539); experiment: Kinase enzyme activity, FRET (Z-LYTE); assay type: biochemical; conditions: 10 μM ATP, via MAPKAP-K2
T1 construct: purchased Invitrogen
Description: (§1) The enzyme inhibitory activity of test compounds was determined by fluorescence resonance energy transfer (FRET) using synthetic peptides labelled with both donor and acceptor fluorophores (Z-LYTE, Invitrogen). For p38 MAPK alpha (MAPK14: Invitrogen), enzyme activity was evaluated indirectly by determining the activation/phosphorylation of the down-stream molecule, MAPKAP-K2. The p38 MAPK a protein was mixed with the test compound for 2 hr at RT. MAPKAP-K2 (Invitrogen), the FRET peptide (2 μM), which is a phosphorylation target for MAPKAP-K2, and ATP (10 μM) were then added to the enzymes/compound mixture and incubated for 1 hr. Development reagent was added and the mixture incubated for 1 hr before detection by fluorescence completed the assay protocol. The enzymes HCK, c-SRC, and SYK were evaluated in a similar fashion. Each enzyme was incubated with the test compound for 2 hr at RT. […] After the development reagent was added the mixtures were incubated for 1 hr and the assay protocol was completed by detection of the fluorescence levels in a microplate reader.

HCK = HCK (Homo sapiens, UniProt P08631); experiment: Kinase enzyme activity, FRET (Z-LYTE); assay type: biochemical; conditions: 15 μM ATP
Description: as §1

NFκB = experiment: HRV-16 induced activation of NFκB in BEAS2B cells; assay type: cell-based, human; conditions: after 2 hr, at 10 MOI
Description: (§2) The cells were then collected by scraping on ice and nuclear extracts were prepared using a nuclear protein extraction kit (ActiveMotif, […], Belgium). NFκB activity and IRF3 activity were then measured using the TransAMTM NFκB (p65) ELISA kit or the TransAMTM IRF3 ELISA kit.

IRF-3 = experiment: HRV-16 induced activation of IRF-3 in BEAS2B cells; assay type: cell-based, human; conditions: after 2 hr, at 10 MOI
Description: as §2

HRV39 [1] = experiment: HRV-39 viral load in air-liquid interface cultured nasal epithelial cells; assay type: cell-based, human rhinovirus
Description: (§3) Primary nasal epithelial cells, cultured using an air-liquid interface, were purchased from Epithelix Sarl (Geneva, Switzerland). Fresh, warmed media (200 μL) containing either the test compound at the selected concentration or vehicle (DMSO; final concentration of 0.5%) was transferred to the apical chamber, and fresh, warmed media (700 μL) containing either the test compound at the selected concentration or vehicle (DMSO; final concentration of 0.5%) were transferred to the bottom chamber. After incubation for 2 hr, the media in the upper well was removed carefully. The following day, fresh, warmed media (200 μL) containing either the test compound at the selected concentration or vehicle (DMSO; final concentration of 0.5%) was transferred to the apical chamber again, and after incubation for 2 hr, the media was removed. On the third day, cells were treated again for 2 hr, and the media was removed. […] IL-8 concentrations were determined using a Duoset ELISA development kit (R&D Systems, Minneapolis, Minn.; FIG. 3B). […] The resultant cytopathic effects (CPE) were assessed by visual inspection 5 days after infection. The amount of virus required to infect 50% of Hela cells was calculated for each treatment and is reported as log[TCID50] […]

SYK = SYK (Homo sapiens, UniProt P43405); experiment: Kinase enzyme activity, FRET (Z-LYTE); assay type: biochemical; conditions: 15 μM ATP
Description: as §1

IL-8 [2] = experiment: HRV39-induced IL-8 release in air-liquid interface cultured nasal epithelial cells; assay type: cell-based, human
Description: as §3

HRV39 [3] = experiment: HRV39 titres in MRC-5 cells; assay type: cell-based, human rhinovirus; conditions: 0.1 or 10 MOI, 3 days, results not shown
ICAM-1 = experiment: ICAM1 expression activated by human rhinovirus in BEAS2B cells (cell-based ELISA); conditions: for ICAM-1 expression induced by HRV16 inoculation (in words): 2 hr infection
Description: BEAS2B cells were infected with rhinovirus at an MOI of 5 and incubated for 2 hr at 33° C. with gentle shaking to enhance adsorption. Test compounds were added 2 hr before HRV infection and 2 hr after infection when residual extracellular HRV was washed out. The cells were then washed with PBS, fresh media was added and the cells were incubated for a further 72 hr. The supernatant was collected for assay of IL-8 concentrations using the Duoset ELISA development kit (R&D Systems, Minneapolis, Minn.). […] After appropriate incubation, cells were fixed with 4% formaldehyde in PBS. After quenching endogenous peroxidase by adding 0.1% sodium azide and 1% hydrogen peroxide, wells were washed with buffer (0.05% Tween in PBS: PBS-Tween). After incubation with the blocking solution (5% milk in PBS-Tween for 1 hr), cells were incubated with anti-human ICAM-1 antibody in 5% BSA PBS-Tween (1:500) overnight. Wells were then washed with PBS-Tween and incubated with the secondary antibody (HRP-conjugated anti-rabbit IgG, Dako Ltd.).

IL-8 [4] = experiment: IL-8 release activated by human rhinovirus in BEAS2B cells; assay type: cell-based; conditions: for IL-8 production in response to inoculation using HRV-16: epithelial cells
Description: BEAS2B cells were infected with rhinovirus at an MOI of 5 and incubated for 2 hr at 33° C. with gentle shaking to enhance adsorption. Test compounds were added 2 hr before HRV infection and 2 hr after infection when residual extracellular HRV was washed out. The cells were then washed with PBS, fresh media was added and the cells were incubated for a further 72 hr. The supernatant was collected for assay of IL-8 concentrations using the Duoset ELISA development kit (R&D Systems, Minneapolis, Minn.).

HRV1B = HRV1B titres in MRC-5 cells; assay type: cell-based, human rhinovirus; conditions: 0.1 or 10 MOI, 3 days, results not shown
HRV16 [5] = experiment: HRV-16 infection, assessment of virus load (TCID50) in MRC5 cells; assay type: cell-based, human rhinovirus 16; conditions: MRC5 cells, 0.1 MOI, total period of 84 hr
HRV16 [6] = experiment: Assessment of HRV16 induced CPE in MRC5; assay type: cell-based, human rhinovirus 16; conditions: Rhinovirus A
Description: The supernatants were aspirated and fresh media was added and the preparations were then incubated for 4 days. Where appropriate, cells were pre-incubated with the test compound or DMSO for 2 hr, and the compounds and DMSO added again after washout of the virus. Supernatants were aspirated and incubated with methylene blue solution (2% formaldehyde, 10% methanol and 0.175% Methylene Blue) for 2 hr at RT. After washing, 1% SDS was added to each well, and plates were shaken lightly for 1-2 hr prior to reading the absorbance at 660 nm. The percentage inhibition for each well was calculated. The IC50 value was calculated from the concentration-response curve generated from the serial dilutions of the test compound.

HRV16 [7] = experiment: HRV-16 infection, assessment of virus load (TCID50) in MRC5 cells; assay type: cell-based, human rhinovirus 16; conditions: HRV16 0.1 MOI, 3 days
Description: Human rhinovirus RV16 (HRV16) was obtained from the American Type Culture Collection (Manassas, Va.). Viral stocks were generated by infecting Hela cells with HRV until 80% of the cells were cytopathic. MRC5 cells (human lung fibroblast, ATCC) were infected at 0.1 MOI (multiplicity of infection of 0.1) of HRV16 and incubated for 1 hr at 33° C. with gentle shaking to stimulate adsorption. The cells were then washed with PBS, fresh media (DMEM-5% FCS) was added and the cells were incubated for a further 72 hr. Supernatant (20 μL) was collected and 10-fold serial dilutions were prepared with DMEM containing 1% FCS. All titrations were performed by infecting confluent Hela cell monolayers with serially diluted supernatant (10^−1-10^−5) and then the cytopathic effect at each dilution 3 days after infection assessed by visual inspection. The cells were then stained with Crystal Violet for confirmation. The amount of virus required to infect 50% of Hela cells was calculated in each treatment as TCID50 (50% tissue culture infectious dose, U(unit)/20 μL). Compounds were added 2 hr before HRV16 infection and 1 hr after infection when non-infected HRV was washed out.

interferon β = experiment: Interferon β induction (mRNA) by HRV16 in MRC-5 cells, PCR; assay type: cell-based, human
Description: (§4) The MRC5 cells infected with virus (as described above) were used for viral RNA or mRNA detection. Total RNA extraction and reverse transcription were performed using TaqMan®Fast Cells-to-CT™ Kit (Ambion Inc. Austin Tex.). The gene transcript level of HRV16 (PrimerDesign Ltd, Southampton, UK), IFN (Applied Biosystems, Warrington, UK) and GAPDH, as a house-keeping gene (PrimerDesign Ltd, Southampton, UK) were quantified by real-time PCR using commercially available primers on a StepOnePlus™ RT-PCR system (Applied Biosystems, Warrington, UK). Variations in cDNA concentrations between different samples were corrected using the housekeeping gene, whereby the GAPDH concentration in each cDNA sample was calculated, and the cDNA diluted to contain equal amounts of GAPDH. Standard curves for GAPDH were generated by performing a dilution series of the untreated control cDNA. The relative amount of gene transcript present after different treatments was calculated and normalized by dividing the calculated value for the gene of interest by that of the house-keeping gene value.

HRV16 mRNA = experiment: Transcripts of HRV16 by PCR in MRC5 cellular extract; assay type: cell-based, human rhinovirus 16; conditions: MRC5 cells, HRV16 0.1 MOI, 3 days
Description: as §4

T1 sequence (Q16539 whole entry): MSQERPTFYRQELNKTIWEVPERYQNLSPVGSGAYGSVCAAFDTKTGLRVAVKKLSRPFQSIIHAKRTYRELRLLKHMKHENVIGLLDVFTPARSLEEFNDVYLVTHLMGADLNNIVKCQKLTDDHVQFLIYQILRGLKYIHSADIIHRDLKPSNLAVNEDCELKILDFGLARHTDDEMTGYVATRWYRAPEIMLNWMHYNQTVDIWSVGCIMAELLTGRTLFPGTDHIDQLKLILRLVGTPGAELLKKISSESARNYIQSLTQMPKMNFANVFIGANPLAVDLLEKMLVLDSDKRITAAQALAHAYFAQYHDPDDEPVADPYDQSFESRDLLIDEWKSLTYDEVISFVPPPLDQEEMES
HCK, sequence (P08631 whole entry): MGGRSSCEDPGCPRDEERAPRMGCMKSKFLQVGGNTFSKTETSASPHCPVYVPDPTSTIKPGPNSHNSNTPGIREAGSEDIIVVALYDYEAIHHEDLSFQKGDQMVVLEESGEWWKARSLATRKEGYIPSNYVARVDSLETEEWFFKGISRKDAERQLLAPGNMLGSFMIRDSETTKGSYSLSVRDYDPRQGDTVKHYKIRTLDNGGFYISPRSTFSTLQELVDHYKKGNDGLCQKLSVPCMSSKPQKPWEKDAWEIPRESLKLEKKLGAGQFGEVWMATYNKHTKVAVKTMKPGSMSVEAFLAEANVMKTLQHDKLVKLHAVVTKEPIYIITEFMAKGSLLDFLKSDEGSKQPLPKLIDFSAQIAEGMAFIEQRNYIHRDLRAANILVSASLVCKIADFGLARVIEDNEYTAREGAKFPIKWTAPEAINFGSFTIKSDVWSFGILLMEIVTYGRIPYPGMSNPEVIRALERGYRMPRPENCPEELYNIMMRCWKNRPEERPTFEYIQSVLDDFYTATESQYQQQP

Compound: COc1ccc(-c2cc3nccn3c(Nc3ncccc3C(N)=O)n2)cc1OC [BAY 61-3606]
- IC50 (p38MAPKα): > 3310 nM
- IC50 (HCK): > 3310 nM
- NFκB activation (HRV-16 induced) (NFκB): inhibited
- IRF-3 activation (HRV-16 induced) (IRF-3): tendency to inhibit

Compound: COCC(=O)Nc1cc(COc2ccc(NC(=O)Nc3cc(C(C)(C)C)nn3-c3ccc(C)cc3)c3ccccc23)ccn1 [Reference Compound 1, N-[4-({4-[3-(3-tert-Butyl-1-p-tolyl-1H-pyrazol-5-yl)ureido]naphthalen-1-yloxy}methyl)pyridin-2-yl]-2-methoxyacetamide, reference compound]
- HRV39 extracellular virus load (HRV39 [1]): little effect
- IC50 (SYK): > 17800 nM
- IL-8 production in response to inoculation using HRV39 (IL-8 [2]): marked inhibition
- HRV39 titres (HRV39 [3]): little or no discernable effect
- ICAM-1 expression induced by HRV16 inoculation (in words) (ICAM-1): no effect
- IC50 (ICAM-1; Homo sapiens, BEAS-2B, HRV16 inoculation (2 hr infection), read-out: HRV16-induced ICAM1 IC50 Value): > 1690 nM
- IC50 (IL-8 [4]; Homo sapiens, BEAS-2B, BEAS2B cells, MOI of 5, 72 hr, read-out: HRV16-induced IL-8 IC50 Value): 1 nM
- IL-8 production in response to inoculation using HRV-16 (IL-8 [4]): marked inhibition
- HRV1B titres (HRV1B): little or no discernable effect
- NFκB activation (HRV-16 induced) (NFκB): some evidence of inhibition; also recorded: Modest inhibition
- Activity versus extracellular HRV16 load, delaying treatment for 24-36 hr (HRV16 [5]): marked decrease in activity
- Activity versus extracellular HRV16 load, initial treatment (HRV16 [5]): marked activity
- IC50 (HRV16 [6]; HRV16, MRC5, 96 h, read-out: HRV16-induced CPE IC50 Value (nM)): 340 nM
- HRV-16 virus load (extracellular) (HRV16 [7]): modest effect; also recorded: Modest inhibition
- IRF-3 activation (HRV-16 induced) (IRF-3): without effect; also recorded: No effect

Compound: COCC(=O)Nc1cc(Oc2ccc(NC(=O)Nc3cc(C(C)(C)C)nn3-c3ccc(C)cc3)c3ccccc23)ccn1 [Reference Compound 2, N-(4-(4-(3-(3-tert-Butyl-1-p-tolyl-1H-pyrazol-5-yl)ureido)naphthalen-1-yloxy)pyridin-2-yl)-2-methoxyacetamide]
- HRV39 extracellular virus load (HRV39 [1]): potent inhibitor
- Interferon β induction by HRV16 (interferon β): marked increases
- IL-8 production in response to inoculation using HRV39 (IL-8 [2]): marked inhibition
- HRV39 titres (HRV39 [3]): potent inhibitor
- ICAM-1 expression induced by HRV16 inoculation (in words) (ICAM-1): remarkably potent inhibitory effect
- IL-8 production in response to inoculation using HRV-16 (IL-8 [4]): marked inhibition
- HRV1B titres (HRV1B): potent inhibitor
- NFκB activation (HRV-16 induced) (NFκB): inhibited; also recorded: Marked inhibition
- HRV16 mRNA detected in cellular extracts (HRV16 mRNA): potent inhibitor
- Activity versus extracellular HRV16 load, delaying treatment for 24-36 hr (HRV16 [5]): more sustained
- Activity versus extracellular HRV16 load, initial treatment (HRV16 [5]): marked activity
- IC50 (HRV16 [6]; 96 h, MRC5 cells, HRV16 MOI of 1, 4 days, read-out: HRV16-induced CPE IC50 Value): 4.7 nM
- HRV-16 virus load (extracellular) (HRV16 [7]): potent inhibitor; also recorded: Marked inhibition
- IRF-3 activation (HRV-16 induced) (IRF-3): enhanced; also recorded: Activation
